The results in this text go back to US20260226073A1 (AURIGENE ONCOLOGY LIMITED, priority 2023, published 2026).

Experiment [1] has as its target T1, human recombinant CBL-b (human Biotin CBL-b recombinant protein a.a. 39-426) (Homo sapiens, UniProt Q13191).
T1 construct: human Biotin CBL-b recombinant protein a.a; 39-426; Biotin (biotinylated); made in house
Description: Biochemical assay for CBL-b inhibition (ligand displacement TR-FRET). The class given is binding. As to conditions: 50 nM CBL-b, 0.3 μM Bodipy FL-Probe, read-out: IC50 (CBL-b inhibition, group). The gist of the method: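 Ligand-displacement TR-FRET: 0.3 μM Bodipy FL probe competes with compound for 50 nM biotin-CBL-b (aa 39-426) after a 60 min RT compound pre-incubation; terbium-streptavidin detection, 60 min each step. Dose-response sigmoidal fitting gave IC50 and % maximum inhibition.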
(In TR-FRET formats the signal depends on donor and acceptor labels being close together.)

In experiment [2] the test system is NFAT signaling pathway in Jurkat NFAT reporter cells. Description: Jurkat NFAT reporter assay. The class given is cell-based. The conditions noted are these: Homo sapiens, 30 min with compound, then soluble anti-human CD3/CD28 antibody for 6 hours, luciferase readout, read-out: EC50 (Group). The gist of the method: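 Results are expressed as fold change relative to stimulated, inhibitor-free cells. Stimulation was 6 h with soluble anti-human CD3/CD28 antibody after a 30-min exposure of 1×10^5 NFAT-RE luciferase Jurkat reporter cells per well to the Cbl-b inhibitor; signal read by Bio-Glo bioluminescence.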
In general terms: Reporter assays use an easily measured gene product as a stand-in for the process of interest.

pEC50, pIC50: −log10 of the molar value. Where only a bound is given, the exact number is not on record here.

T1 sequence (Q13191 39-426): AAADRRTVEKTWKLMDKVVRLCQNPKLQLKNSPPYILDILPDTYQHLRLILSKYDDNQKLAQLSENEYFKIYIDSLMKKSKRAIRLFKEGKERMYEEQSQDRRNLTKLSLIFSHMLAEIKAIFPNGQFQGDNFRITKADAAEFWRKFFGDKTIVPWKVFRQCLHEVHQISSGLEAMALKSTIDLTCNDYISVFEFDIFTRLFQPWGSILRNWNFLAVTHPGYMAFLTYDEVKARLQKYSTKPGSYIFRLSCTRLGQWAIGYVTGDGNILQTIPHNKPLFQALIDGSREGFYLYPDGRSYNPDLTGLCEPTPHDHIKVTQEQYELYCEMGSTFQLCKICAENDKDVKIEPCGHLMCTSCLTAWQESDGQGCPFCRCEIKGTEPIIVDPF

Take `Cn1cnnc1CC1(c2ccc3c(c2)C(=O)N(c2cc(CN4CCCC(F)(F)C4)cc(C(F)(F)F)n2)C3)COC1` [Compound 47, 2-(4-((3,3-Difluoropiperidin-1-yl)methyl)-6-(trifluoromethyl)pyridin-2-yl)-6-(3-((4-methyl-4H-1,2,4-triazol-3-yl)methyl)oxetan-3-yl)isoindolin-1-one]: the pIC50 (as a rule, −log10 of the IC50, conventionally taken in molar units) in experiment [1] is 6.52 to 7.10. Besides, the pEC50 (commonly the EC50 on a negative log10 scale, so that one unit is a factor of ten) in experiment [2] was 5.00 to 6.00.
The like results for `Cn1cnnc1CC1(c2ccc3c(c2)C(=O)N(c2cc(CN4CCC(F)(F)CC4)cc(C(F)(F)F)n2)C3)COC1` [Compound 48, 2-(4-((4,4-Difluoropiperidin-1-yl)methyl)-6-(trifluoromethyl)pyridin-2-yl)-6-(3-((4-methyl-4H-1,2,4-triazol-3-yl)methyl)oxetan-3-yl)isoindolin-1-one] were, in that order, 6.52 to 7.10 and 6.00 to 6.52.
As to `C[C@H]1CCCN(Cc2cc(CC3CC3)cc(N3Cc4ccc(C5(Cc6nncn6C)COC5)cc4C3=O)c2)C1` [Compound 49, (S)-2-(3-(Cyclopropylmethyl)-5-((3-methylpiperidin-1-yl)methyl)phenyl)-6-(3-((4-methyl-4H-1,2,4-triazol-3-yl)methyl)oxetan-3-yl)isoindolin-1-one], the pIC50 in experiment [1] was 6.52 to 7.10. Besides, the pEC50 in experiment [2] was 6.00 to 6.52.
Turning to `Cn1cnnc1CC1(c2ccc3c(c2)C(=O)N(c2cc(CN4CC5(CCC5)C4)cc(C(F)(F)F)n2)C3)COC1` [Compound 51, 2-(4-((2-Azaspiro[3.3]heptan-2-yl)methyl)-6-(trifluoromethyl)pyridin-2-yl)-6-(3-((4-methyl-4H-1,2,4-triazol-3-yl)methyl)oxetan-3-yl)isoindolin-1-one], the pIC50 in experiment [1] is 5.30 to 6.52. The pEC50 in experiment [2] was 5.00 to 6.00.
For `C[C@H]1CCCN(Cc2cc(Cl)nc(N3Cc4ccc([C@]5(c6nncn6C)C[C@@H](C)C5)cc4C3=O)c2)C1` [Compound 58, 2-(6-Chloro-4-(((S)-3-methylpiperidin-1-yl)methyl)pyridin-2-yl)-6-((1s,3R)-3-methyl-1-(4-methyl-4H-1,2,4-triazol-3-yl)cyclobutyl)isoindolin-1-one], the pIC50 in experiment [1] is 5.30 to 6.52. Moreover, the pEC50 in experiment [2] was 5.00 to 6.00.
In the same order, the values of `C[C@H]1C[C@H](C)CN(Cc2cc(Cl)nc(N3Cc4ccc(C5(Cc6nncn6C)COC5)cc4C3=O)c2)C1` [Compound 60, 2-(6-Chloro-4-(((3S,5S)-3,5-dimethylpiperidin-1-yl)methyl)pyridin-2-yl)-6-(3-((4-methyl-4H-1,2,4-triazol-3-yl)methyl)oxetan-3-yl)isoindolin-1-one] are above 7.10 and above 6.52.
With `Cn1cnnc1CC1(c2ccc3c(c2)C(=O)N(c2cc(CN4CC[C@H](F)C4)cc(C(F)(F)F)n2)C3)COC1` [Compound 61, (S)-2-(4-((3-Fluoropyrrolidin-1-yl)methyl)-6-(trifluoromethyl)pyridin-2-yl)-6-(3-((4-methyl-4H-1,2,4-triazol-3-yl)methyl)oxetan-3-yl)isoindolin-1-one], the pIC50 in experiment [1] is 5.30 to 6.52. In addition, in experiment [2], the pEC50 is 5.00 to 6.00.
The like results for `Cn1cnnc1CC1(c2ccc3c(c2)C(=O)N(c2cc(CN4CCC5(CC5)C4)cc(Cl)n2)C3)COC1` [Compound 62, 2-(4-((5-Azaspiro[2.4]heptan-5-yl)methyl)-6-chloropyridin-2-yl)-6-(3-((4-methyl-4H-1,2,4-triazol-3-yl)methyl)oxetan-3-yl)isoindolin-1-one] were, in that order, 6.52 to 7.10 and 6.00 to 6.52.
With `Cn1cnnc1CC1(c2ccc3c(c2)C(=O)N(c2cc(CN4CCCCC4)cc(Cl)n2)C3)COC1` [Compound 64, 2-(6-Chloro-4-(piperidin-1-ylmethyl)pyridin-2-yl)-6-(3-((4-methyl-4H-1,2,4-triazol-3-yl)methyl)oxetan-3-yl)isoindolin-1-one], in experiment [1], the pIC50 was above 7.10. Moreover, the pEC50 in experiment [2] was above 6.52.
Turning to `C[C@@H]1C[C@H](C)CN(Cc2cc(N3Cc4ccc(C5(Cc6nncn6C)COC5)cc4C3=O)cc(C(F)(F)F)c2)C1` [Compound 65, 2-(3-(((3S,5R)-3,5-Dimethylpiperidin-1-yl)methyl)-5-(trifluoromethyl)phenyl)-6-(3-((4-methyl-4H-1,2,4-triazol-3-yl)methyl)oxetan-3-yl)isoindolin-1-one], the pIC50 in experiment [1] is 6.52 to 7.10. The pEC50 in experiment [2] is 6.00 to 6.52.
In the same order, the values of `Cn1cnnc1CC1(c2ccc3c(c2)C(=O)N(c2cc(CNCCC(F)(F)F)cc(Cl)n2)C3)COC1` [Compound 66, 2-(6-Chloro-4-(((3,3,3-trifluoropropyl)amino)methyl)pyridin-2-yl)-6-(3-((4-methyl-4H-1,2,4-triazol-3-yl)methyl)oxetan-3-yl)isoindolin-1-one] are above 7.10 and above 6.52.
Take `C[C@H]1CCN(Cc2cc(Cl)nc(N3Cc4ccc(C5(Cc6nncn6C)COC5)cc4C3=O)c2)C1` [Compound 67, (S)-2-(6-Chloro-4-((3-methylpyrrolidin-1-yl)methyl)pyridin-2-yl)-6-(3-((4-methyl-4H-1,2,4-triazol-3-yl)methyl)oxetan-3-yl)isoindolin-1-one]: the pIC50 in experiment [1] was 6.52 to 7.10. Further, in experiment [2], the pEC50 was 6.00 to 6.52.
The like results for `C[C@@H]1CCN(Cc2cc(Cl)nc(N3Cc4ccc(C5(Cc6nncn6C)COC5)cc4C3=O)c2)C1` [Compound 68, (R)-2-(6-Chloro-4-((3-methylpyrrolidin-1-yl)methyl)pyridin-2-yl)-6-(3-((4-methyl-4H-1,2,4-triazol-3-yl)methyl)oxetan-3-yl)isoindolin-1-one] were, in that order, 6.52 to 7.10 and 6.00 to 6.52.
With `Cn1cnnc1CC1(c2ccc3c(c2)C(=O)N(c2cc(CN4CC5CC5C4)cc(C(F)(F)F)n2)C3)COC1` (stereo not shown) [Compound 71, 2-(4-((3-Azabicyclo[3.1.0]hexan-3-yl)methyl)-6-(trifluoromethyl)pyridin-2-yl)-6-(3-((4-methyl-4H-1,2,4-triazol-3-yl)methyl)oxetan-3-yl)isoindolin-1-one], the negative-log IC50 (pIC50) in experiment [1] is 5.30 to 6.52. Moreover, in experiment [2], the pEC50 was 5.00 to 6.00.
As for `C[C@H]1CCCN(Cc2cc(C3CC3)nc(N3Cc4ccc(C5(Cc6nncn6C)COC5)cc4C3=O)c2)C1` [Compound 73, (S)-2-(6-Cyclopropyl-4-((3-methylpiperidin-1-yl)methyl)pyridin-2-yl)-6-(3-((4-methyl-4H-1,2,4-triazol-3-yl)methyl)oxetan-3-yl)isoindolin-1-one], the negative-log IC50 (pIC50) in experiment [1] is 6.52 to 7.10. Also, the pEC50 in experiment [2] is 5.00 to 6.00.
With `Cn1cnnc1CC1(c2ccc3c(c2)C(=O)N(c2cc(CNC4CC(F)(F)C4)cc(C(F)(F)F)n2)C3)COC1` [Compound 74, 2-(4-(((3,3-Difluorocyclobutyl)amino)methyl)-6-(trifluoromethyl)pyridin-2-yl)-6-(3-((4-methyl-4H-1,2,4-triazol-3-yl)methyl)oxetan-3-yl)isoindolin-1-one], the negative-log IC50 (pIC50) in experiment [1] was 6.52 to 7.10. Besides, the pEC50 in experiment [2] was 5.00 to 6.00.
`C[C@@H]1C[C@H](C)CN(Cc2cc(N3Cc4ccc(C5(Cc6nncn6C)CCC5)cc4C3=O)nc(C(F)(F)F)c2)C1` [Compound 82, 2-(4-(((3S,5R)-3,5-Dimethylpiperidin-1-yl)methyl)-6-(trifluoromethyl)pyridin-2-yl)-6-(1-((4-methyl-4H-1,2,4-triazol-3-yl)methyl)cyclobutyl)isoindolin-1-one]: the pIC50 in experiment [1] was above 7.10. The pEC50 in experiment [2] was above 6.52.
Turning to `CC(Cc1nncn1C)c1ccc2c(c1)C(=O)N(c1cc(CN3CCC[C@H](C)C3)cc(Cl)n1)C2` (stereo partly drawn) [Compound 83, 2-(6-Chloro-4-(((S)-3-methylpiperidin-1-yl)methyl)pyridin-2-yl)-6-(1-(4-methyl-4H-1,2,4-triazol-3-yl)propan-2-yl)isoindolin-1-one], in experiment [1], the negative logarithm of the IC50 (pIC50) was above 7.10. For the same compound, the pEC50 in experiment [2] was above 6.52.
As for `CC(Cc1nncn1C)c1ccc2c(c1)C(=O)N(c1cc(CN3C[C@H](C)C[C@H](C)C3)cc(Cl)n1)C2` (stereo partly drawn) [Compound 84, 2-(6-Chloro-4-(((3S,5R)-3,5-dimethylpiperidin-1-yl)methyl)pyridin-2-yl)-6-(1-(4-methyl-4H-1,2,4-triazol-3-yl)propan-2-yl)isoindolin-1-one], the pIC50 in experiment [1] was 6.52 to 7.10. Further, the pEC50 in experiment [2] is 6.00 to 6.52.
For the compound `C[C@H]1CCCN(Cc2cc(Cl)nc(N3Cc4ccc(C5(Cc6nncn6C)CC(C#N)C5)cc4C3=O)c2)C1` (stereo partly shown) [Compound 85], the pIC50 in experiment [1] was above 7.10. In addition, the pEC50 in experiment [2] was above 6.52.
For the compound `Cn1cnnc1CC1(c2ccc3c(c2)C(=O)N(c2cc(CNC4(C)CCC4)cc(C(F)(F)F)n2)C3)COC1` [Compound 88, 6-(3-((4-Methyl-4H-1,2,4-triazol-3-yl)methyl)oxetan-3-yl)-2-(4-(((1-methyl-cyclobutyl)amino)methyl)-6-(trifluoromethyl)pyridin-2-yl)isoindolin-1-one], the pIC50 in experiment [1] is 5.30 to 6.52. Moreover, the pEC50 in experiment [2] is 6.00 to 6.52.
For `C[C@H]1CCCN(Cc2cc(Cl)nc(N3Cc4ccc(C5(Cc6nncn6C)CCC5)cc4C3=O)c2)C1` [Compound 89, (S)-2-(6-Chloro-4-((3-methylpiperidin-1-yl)methyl)pyridin-2-yl)-6-(1-((4-methyl-4H-1,2,4-triazol-3-yl)methyl)cyclobutyl)isoindolin-1-one], the pIC50 in experiment [1] was above 7.10. Besides, the pEC50 in experiment [2] was above 6.52.
Consider `Cn1cnnc1CC1(c2ccc3c(c2)C(=O)N(c2cc(CN4CCCc5c4cnn5C)cc(C(F)(F)F)n2)C3)COC1` [Compound 92, 2-(4-((1-Methyl-1,5,6,7-tetrahydro-4H-pyrazolo[4,3-b]pyridin-4-yl)methyl)-6-(trifluoromethyl)pyridin-2-yl)-6-(3-((4-methyl-4H-1,2,4-triazol-3-yl)methyl)oxetan-3-yl)isoindolin-1-one], for which the pIC50 in experiment [1] was 5.30 to 6.52. Further, the negative logarithm of the EC50 (pEC50) in experiment [2] is 5.00 to 6.00.
